Laboratory results taken from the CheMixHub ionic liquid set.

Assay: xn = mol fraction of the nth substance listed
Details: 100 kPa

CCCC[n+]1ccn(C)c1.N#C[S-] + c1ccsc1
viscosity [mPa·s]
Details	x2 = 0	x2 = 0.103	x2 = 0.143	x2 = 0.246	x2 = 0.61	x2 = 0.701
298.15 K	57.4	47.2	42.9	32	13.36	9.93
308.15 K	37.4	31.4	28.7	22	9.94	7.57
318.15 K	25.8	22.1	20.4	15.96	7.67	5.96
328.15 K	18.7	16.22	15.07	12.02	6.1	4.83

OC[C@H]1O[C@H](O[C@H]2[C@H](O)[C@@H](O)C(O)O[C@@H]2CO)[C@H](O)[C@@H](O)[C@@H]1O (stereo partly drawn) + CCCCCCCCCCCCCCCC[N+](C)(C)C.[Br-] + O
viscosity [mPa·s]
Details	298.15 K	308.15 K	318.15 K
x2 = 7.13e-06, x1 = 0.002703	1.07	0.885	0.734
x2 = 7.15e-06, x1 = 0.002359	1.048	0.867	0.719
x2 = 7.16e-06, x1 = 0.001637	1.002	0.829	0.688
x2 = 7.16e-06, x1 = 0.001964	1.023	0.846	0.702
x2 = 7.18e-06, x1 = 0.0009633	0.958	0.793	0.659
x2 = 7.18e-06, x1 = 0.001278	0.978	0.809	0.672
x2 = 1.423e-05, x1 = 0.002657	1.073	0.888	0.736
x2 = 1.424e-05, x1 = 0.002424	1.058	0.875	0.726
x2 = 1.428e-05, x1 = 0.001986	1.029	0.851	0.706
x2 = 1.43e-05, x1 = 0.001593	1.003	0.83	0.688
x2 = 1.433e-05, x1 = 0.001228	0.979	0.81	0.672
x2 = 1.435e-05, x1 = 0.0009418	0.96	0.795	0.659
x2 = 2.126e-05, x1 = 0.002693	1.08	0.894	0.74
x2 = 2.128e-05, x1 = 0.002482	1.066	0.882	0.73
x2 = 2.135e-05, x1 = 0.001972	1.032	0.854	0.707
x2 = 2.141e-05, x1 = 0.001636	1.01	0.835	0.692
x2 = 2.143e-05, x1 = 0.001347	0.99	0.819	0.678
x2 = 2.15e-05, x1 = 0.0008556	0.957	0.792	0.656
